Results reported in patent publication US11324706B2, “Composition for inhibiting growth of breast cancer stem cells containing phenylacetaldehyde” (JEJU NATIONAL UNIVERSITY INDUSTRY-ACADEMIC COOPERATION …, priority 2016, dated 2022).

System: secreted IL-6
Experiment: Western blot of secreted IL-6 in mammosphere culture solution
Format: cell-based, human
Conditions: culture solution of mammospheres
Source text: PAA reduces extracellular IL-6 protein levels in mammosphere culture;
The secreted IL-6 is known to play a key role in the formation of mammospheres (Sansone P, Storci G, Tavolari S, Guarnieri T, Giovannini C, Taffurelli M, Ceccarelli C, Santini D, Paterini P, Marcu K B, Chieco P and Bonafe M. IL-6 triggers malignant features in mammospheres from human ductal breast carcinoma and normal mammary gland. J Clin Invest. 2007; 117(12):3988-4002). Accordingly, in order to investigate the amount of produced secreted IL-6, western blot analysis was conducted in a culture solution of mammospheres using IL-6 antibodies. […] The internal control group was used to count mammospheres before and after treatment with PAA.

Structure (SMILES): O=CCc1ccccc1 [PAA, phenylacetaldehyde]
- production level of secreted IL-6: reduced
